# ChEMBL document CHEMBL1133915, “Design and synthesis of novel antibacterial agents with inhibitory activity against DNA polymerase III” (Bioorg Med Chem Lett, 2001)
# Legend:
# Streptococcus pneumoniae [1] = assay: Tested for in vitro anti bacterial activity against Streptococcus pneumoniae CL5350 and growth affected but tested at highest level of inhibition; type: functional
# Enterococcus faecium [2] = assay: Tested for in vitro anti bacterial activity against Enterococcus faecium RLAI (ampicillin and imipenem resistant); type: functional
# Bacillus subtilis = assay: Tested for in vitro anti bacterial activity against Bacillus subtilis ATCC- 6633; type: functional
# [3] = Tested for in vitro antibacterial activity against DNA polymerase III; parameters: species or system Staphylococcus aureus
# Staphylococcus aureus [4] = assay: Tested for in vitro anti bacterial activity against Staphylococcus aureus MB2985 […]; type: functional
# Enterococcus faecium [5] = assay: Tested for in vitro anti bacterial activity against Enterococcus faecium RLAI (ampicillin and imipenem resistant), growth unaffected at highest level; type: functional
# Staphylococcus aureus [6] = assay: In vitro percent inhibition against Pol III of Staphylococcus aureus at a concentration of 500 uM
# Streptococcus pneumoniae [7] = assay: Tested for in vitro anti bacterial activity against Streptococcus pneumoniae CL5350; type: functional
# [8] = Tested for in vitro antibacterial activity against DNA polymerase III of Staphylococcus aureus
inhibition (Staphylococcus aureus [6]),Compound,MIC (Enterococcus faecium [2]),MIC (Bacillus subtilis),IC50 [3],MIC (Staphylococcus aureus [4]),further results
20%,CSc1cc(Nc2ccc(C)c(I)c2)nc(N)n1,–,–,–,–,–
54%,Cc1ccc(Nc2cc(S)nc(N)n2)cc1I,–,–,–,–,–
21%,Cc1cc(Nc2ccc(C)c(I)c2)nc(N)n1,–,–,–,–,–
13%,CCc1cc(Nc2cc(Oc3ccc(Cl)cc3)nc(N)n2)ccc1C,–,–,–,–,–
33%,CCc1cc(Nc2cc(Oc3ccc(F)cc3)nc(N)n2)ccc1C,–,–,–,–,–
2%,Cc1ccc(Nc2cc(Sc3ccccc3)nc(N)n2)cc1I,–,–,–,–,–
97%,CCc1cc(Nc2cc(Oc3ccc(Br)cc3)nc(N)n2)ccc1C,–,–,–,–,IC50 [8]: 10 µM
88%,CCc1cc(Nc2cc(Oc3cccc(C)c3)nc(N)n2)ccc1C,–,–,–,–,IC50 [8]: 54 µM

# The next lines start with the molecule.
Compound,inhibition (Staphylococcus aureus [6]),MIC (Enterococcus faecium [2]),MIC (Bacillus subtilis),IC50 [3],MIC (Staphylococcus aureus [4]),further results
Nc1nc(Cl)cc(Nc2ccc(Cl)c(Cl)c2)n1,–,29 µg/mL,7 µg/mL,98 µM,29 µg/mL,MIC (Streptococcus pneumoniae [1]): > 29 µg/mL
Nc1nc(Cl)cc(Nc2ccc3c(c2)CCC3)n1,–,–,3 µg/mL,119 µM,> 26 µg/mL,MIC (Streptococcus pneumoniae [1]): > 26 µg/mL; MIC (Enterococcus faecium [5]): > 26 µg/mL
CCc1cc(Nc2cc(Cl)nc(N)n2)ccc1C,–,13 µg/mL,3 µg/mL,53 µM,> 26 µg/mL,MIC (Streptococcus pneumoniae [7]): 26 µg/mL
Cc1ccc(Nc2cc(N(C)C)nc(N)n2)cc1C,27%,–,–,–,–,–
Cc1ccc(Nc2cc(Cl)nc(N)n2)cc1I,–,36 µg/mL,5 µg/mL,51 µM,> 36 µg/mL,MIC (Streptococcus pneumoniae [7]): 18 µg/mL
Cc1ccc(Nc2cc(Cl)nc(N)n2)cc1Cl,–,27 µg/mL,13 µg/mL,126 µM,27 µg/mL,MIC (Streptococcus pneumoniae [7]): 27 µg/mL
Cc1ccc(Nc2cc(Cl)nc(N)n2)cc1C,–,–,6 µg/mL,115 µM,> 25 µg/mL,MIC (Streptococcus pneumoniae [1]): > 25 µg/mL; MIC (Enterococcus faecium [5]): > 25 µg/mL
CC(C)(C)c1cccc(Nc2cc(Cl)nc(N)n2)c1,–,14 µg/mL,7 µg/mL,89 µM,7 µg/mL,MIC (Streptococcus pneumoniae [7]): 14 µg/mL
Cc1ccc(Nc2cc(Cl)nc(N)n2)cc1Br,–,31 µg/mL,8 µg/mL,94 µM,–,MIC (Streptococcus pneumoniae [7]): 31 µg/mL
